Key:
[1] = system: A549 (non-small cell lung); experiment: Antiproliferative activity, A549; assay type: cell-based, human; details: for GI50: Homo sapiens
Method: (§1) The in vitro antiproliferative activity of investigated compounds was evaluated against six human solid tumor cell lines: A549 (non-small cell lung), HBL-100, (breast), HeLa (cervix), SW1573 (non-small cell lung), as drug sensitive lines, T-47D (breast) and WiDr (colon) as drug resistant lines. These cell lines were a kind gift from Prof. G. J. Peters (VU Medical Center, Amsterdam, The Netherlands). For selectivity studies, the human fibroblasts BJ-hTert cell line was used, which was obtained from Dr. R. Freire (HUC, Tenerife, Canary Islands). Cells were kept in culture medium under standard conditions: RPMI 1640 medium, fetal bovine serum (5%), glutamine (2 mM), penicillin G (100 units/mL) and streptomycin (0.1 mg/mL). Antiproliferative tests were conducted as described earlier (Skehan et al., [1990]; Miranda et al., [2006]). Tested compounds were dissolved in DMSO at an initial concentration of 40 mM. DMSO was used as negative control (0.25% v/v). Antiproliferative activity of the compounds was expressed as GI50, which is the concentration of the compound that inhibits 50% of the culture growth.

[2] = system: human fibroblasts BJ-hTert cell line; experiment: Selectivity, non-transformed fibroblasts BJ-hTert; assay type: cell-based; details: Fibroblast; BJ-hTert normal human cell line; concentrations up to 100 μM
Method: as §1

[3] = system: SW1573 (non-small cell lung); experiment: Antiproliferative activity, SW1573; assay type: cell-based, human; details: for GI50: Homo sapiens
Method: as §1

HBL-100 (breast) = experiment: Antiproliferative activity, HBL-100; assay type: cell-based, human; details: for GI50: Homo sapiens
Method: as §1

HeLa (cervix) = experiment: Antiproliferative activity, HeLa; assay type: cell-based, human; details: for GI50: Homo sapiens
Method: as §1

[4] = Oxygen radical absorbance capacity (ORAC) assay; details: Trolox equivalents; mean ± SD, n = 3
Method: A modification of original protocol was used (Ou et al., [2001]). Stock solutions of fluorescein substrate (5 μM) and free radical generator AAPH (0.5 M) were prepared in 75 mM potassium phosphate buffer (pH = 7.4). Volume of 100 μL of sample solutions or Trolox in DMSO (20 μM) were mixed with 1,485 μL of buffer and 15 μL of fluorescein solution. The 30 min reaction at 37°C was initiated by adding 250 μL of AAPH solution. Fluorescence conditions were as follows: excitation and emission wavelengths 485 and 511 nm, respectively, slits 2 nm. The relative sample ORAC value was expressed as Trolox equivalents (TE).

MAO B = molecular target: T1, MAO B (Homo sapiens, UniProt P27338); experiment: MAO B inhibition, discontinuous fluorimetric kynuramine assay; assay type: biochemical; details: for inhibition at 1 µM: 1 μM inhibitor, mean ± SD, n = 2, normalized to control
T1 construct: purchased Sigma-Aldrich
T1 sequence (P27338 1-520): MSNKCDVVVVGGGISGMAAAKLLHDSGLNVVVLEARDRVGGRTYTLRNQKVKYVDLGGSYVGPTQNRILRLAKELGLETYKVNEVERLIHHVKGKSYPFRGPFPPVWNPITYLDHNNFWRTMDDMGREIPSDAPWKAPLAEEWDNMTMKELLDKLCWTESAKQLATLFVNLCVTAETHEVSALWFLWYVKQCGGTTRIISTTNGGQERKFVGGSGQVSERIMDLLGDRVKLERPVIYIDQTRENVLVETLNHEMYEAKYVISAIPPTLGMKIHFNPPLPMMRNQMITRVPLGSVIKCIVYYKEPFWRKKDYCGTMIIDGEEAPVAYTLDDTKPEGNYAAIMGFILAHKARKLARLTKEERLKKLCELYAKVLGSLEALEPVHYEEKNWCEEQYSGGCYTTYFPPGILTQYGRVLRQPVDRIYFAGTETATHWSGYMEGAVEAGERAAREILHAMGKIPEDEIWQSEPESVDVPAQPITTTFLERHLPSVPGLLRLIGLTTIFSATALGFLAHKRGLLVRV
Method: MAO A and B inhibition capacities were investigated using a discontinuous fluorimetric assay (Meiring et al., [2013]) as described previously by using human recombinant membrane-bound MAO purchased from Sigma-Aldrich (Affini et al., [2018]). Briefly, remained enzyme activity with inhibitor, either 1 μM (one-point) or concentrations ranging from 0.0001 to 10 μM, was assessed in the presence of kynuramine [2 × KM, KM = 20 μM (MAO A), KM = 30 μM (MAO B)] in potassium phosphate buffer (pH 7.4). Reactions were started by addition of enzyme and stopped by manual addition of sodium hydroxide (2 N) after 20 min. Enzyme activity was determined by detection of 4-hydroxyquinoline (λEx = 320 nm, λEm = 405 nm). Data were analyzed using GraphPad PRISM 6. For one-point measurements data were calculated as percentage of control and expressed as mean ± standard deviation (%). […] Data were obtained from two (one-point measurements) or at least three (IC50 values) independent experiments, each performed in duplicates.

[5] = Total antioxidant capacity (TAOC), modified phosphomolybdenum method; details: concentration providing 0.500 of absorbance at 695 nm; mean ± SD, n = 3
Method: Volume of 0.4 mL of sample solution (50–1,000 μM) was mixed with 1.6 mL of reagent solution [0.6 M H2SO4, 28 mM Na3PO4, and 4 mM (NH4)2MoO4] and resulting mixtures were incubated at 95°C for 90 min. The cooled reaction mixtures were then centrifuged for 10 min (3,000 rpm). The absorbance of the supernatant solution was measured, 1 h after centrifugation, at 695 nm against reagent solution as blank. An increased absorbance in reading in both assays indicated increased antioxidant power, expressed as EC50 values (the sample concentration giving absorbance of 0.500 from the graph of absorbance at 700 nm or 695 nm against compound concentration) (Prieto et al., [1999]).

[6] = DPPH scavenging antioxidant assay; details: concentration providing 50% of radicals scavenging activity; mean ± SD, n = 3
Method: The experiments were performed according to the literature protocol (Prior et al., [2005]). All tested compounds were initially dissolved in DMSO. The initial concentration of DPPH in methanol was 6.58 × 10^−5 M. A volume of 140 μL of DPPH solution was placed into a 96-well microplate, and then 10 μL solution of the tested compounds was added. Pure DMSO (10 μL) was used as the control. The absorbance at 517 nm was measured after 30 min period of incubation in the dark at 25°C. The Equation (1) was used for calculation of the scavenging activity:
(1) Scavenging activity (%)=Acontrol- Asample/Acontrol×100
where Asample and Acontrol refer to the absorbances at 517 nm of the sample and control, respectively. IC50 values were calculated from the graph of scavenging activity against the concentrations of the samples. IC50 represents the total antioxidant concentration of the sample which decreases the amount of the initial DPPH radical by 50%. Ascorbic acid (vitamin C) was used as positive control (concentration range 10–500 μM).

Row | Compound | antiproliferative activity class A549 [1] | GI50 [1] [µM] | GI50 [2] [µM] | antiproliferative activity class SW1573 [3] | GI50 [3] [µM] | antiproliferative activity class HBL-100 (HBL-100 (breast)) | GI50 (HBL-100 (breast)) [µM] | melting point [°C] | antiproliferative activity class HeLa (HeLa (cervix)) | GI50 (HeLa (cervix)) [µM] | ORAC [4] [TE] | inhibition at 1 µM (MAO B) [%] | IC50 (MAO B; mean, 95% CI, at least three experiments) [µM] | EC50 [5] [µM] | IC50 [6] [µM]
1 | C(=NNc1nc(-c2ccccc2)c[se]1)c1ccccc1 [Compound 1, 2-(2-benzylidenehydrazinyl)-4-phenyl-1,3-selenazole] | moderate activity (moderate activity (GI50 = 10–100 μM)) | 28 ± 7.1 | > 100 | moderate activity (moderate activity (GI50 = 10–100 μM)) | 24 ± 8 | moderate activity (moderate activity (GI50 = 10–100 μM)) | 91 ± 12 | 178 to 180 | moderate activity (moderate activity (GI50 = 10–100 μM)) | 41 ± 9.5 | 0.75 ± 0.05 | 89.4 ± 1.5 | 0.252 | 648 ± 55 | 8.63 ± 1.66
2 | COc1ccc(-c2c[se]c(NN=Cc3ccccc3)n2)cc1 [Compound 1-OMe, 2-(2-benzylidenehydrazinyl)-4-(4-methoxyphenyl)-1,3-selenazole] | – | > 100 | > 100 | – | 42 ± 7.7 | – | > 100 | 180 to 182 | – | > 100 | 0.74 ± 0.06 | 33 ± 11.6 | – | 548 ± 53 | 54.3 ± 4.54
3 | O=[N+]([O-])c1ccccc1C=NNc1nc(-c2ccccc2)c[se]1 [Compound 2, 2-(2-(2-nitrobenzylidene)hydrazinyl)-4-phenyl-1,3-selenazole] | good activity (good activity (GI50 = 1–10 μM)) | 4.9 ± 1.5 | > 100 | good activity (good activity (GI50 = 1–10 μM)) | 5.3 ± 0.6 | – | 21 ± 8.6 | 183 to 184 | good activity (good activity (GI50 = 1–10 μM)) | 6 ± 0.7 | 0.82 ± 0.07 | 64.8 ± 6.1 | – | 357 ± 41 | 21.9 ± 5.6
4 | Cc1ccc(-c2c[se]c(NN=Cc3ccccc3[N+](=O)[O-])n2)cc1 [Compound 2-Me, 2-(2-(2-nitrobenzylidene)hydrazinyl)-4-(p-tolyl)-1,3-selenazole] | good activity (good activity (GI50 = 1–10 μM)) | 8.8 ± 2.2 | > 100 | good activity (good activity (GI50 = 1–10 μM)) | 4.6 ± 1.2 | – | 95 ± 8.1 | 170 to 171 | good activity (good activity (GI50 = 1–10 μM)) | 7.4 ± 1.4 | 0.77 ± 0.05 | 22.1 ± 8.7 | – | 416 ± 45 | 20.2 ± 4.3
5 | COc1ccc(-c2c[se]c(NN=Cc3ccccc3[N+](=O)[O-])n2)cc1 [Compound 2-OMe, 4-(4-methoxyphenyl)-2-(2-(2-nitrobenzylidene)hydrazinyl)-1,3-selenazole] | – | 22 ± 5.6 | > 100 | – | 46 ± 10 | – | > 100 | 165 to 166 | – | 49 ± 12 | 0.82 ± 0.07 | 35.9 ± 11.2 | – | 433 ± 39 | 40.5 ± 3.8
6 | O=[N+]([O-])c1cccc(C=NNc2nc(-c3ccccc3)c[se]2)c1 [Compound 3, 2-(2-(3-nitrobenzylidene)hydrazinyl)-4-phenyl-1,3-selenazole] | good activity (good activity (GI50 = 1–10 μM)) | 6.1 ± 0.8 | > 100 | – | 16 ± 4.8 | – | 28 ± 0.8 | 216 to 218 | – | 24 ± 7.1 | 0.90 ± 0.06 | 57.5 ± 11.4 | – | 325 ± 38 | 174 ± 11.6
7 | Cc1ccc(-c2c[se]c(NN=Cc3cccc([N+](=O)[O-])c3)n2)cc1 [Compound 3-Me, 2-(2-(3-nitrobenzylidene)hydrazinyl)-4-(p-tolyl)-1,3-selenazole] | – | 44 ± 15 | > 100 | – | 18 ± 4.5 | – | 60 ± 9.5 | 203 to 206 | – | 31 ± 4 | 0.83 ± 0.05 | 7.4 ± 27 | – | 571 ± 45 | 152 ± 10.1
8 | COc1ccc(-c2c[se]c(NN=Cc3cccc([N+](=O)[O-])c3)n2)cc1 [Compound 3-OMe, 4-(4-methoxyphenyl)-2-(2-(3-nitrobenzylidene)hydrazinyl)-1,3-selenazole] | – | 52 ± 1 | > 100 | good activity (good activity (GI50 = 1–10 μM)) | 8.4 ± 0.2 | – | > 100 | 201 to 203 | – | 26 ± 2 | 0.86 ± 0.07 | 23.8 ± 7.7 | – | 632 ± 50 | 298 ± 14.8

From article PMC6037691, “Selenazolyl-hydrazones as Novel Selective MAO Inhibitors With Antiproliferative and Antioxidant Activities: Experimental and In-silico Studies” (Frontiers in Chemistry, 2018)
